Data reported in patent US4560677A, “Synergistic avermectin combination for treating plant pests” (Merck & Co., Inc., priority 1984, dated 1985).
Where two headings read alike, the source gives them in different places.

Experiments:
2-spotted spider mites [1] = assay: Contact activity on bean leaves against 2-spotted spider mites (Table X); type: in vivo, Tetranychus urticae; settings: for mortality at 0.015 ppm / mortality at 0.04 ppm / mortality at 0.06 ppm / mortality at 0.25 ppm: Tetranychus urticae
Method: (§1) A solution of Triton X-155 in acetone (1000 ppm) was used to dissolve the material under test and the resultant solution was diluted with water to obtain a mixture of 10% acetone and 100 ppm of Triton X-155 in water. Further dilution of this stock solution as required in a test was done by using Triton X-155 at 100 ppm in water so that a constant ratio of the surfactant was maintained at all levels. Where emulsifiable oil was used in the treatments, the solutions were prepared in such a way that the final solutions contained 0.06% v/v of the oil.
(§2) Leaves of Sieva bean plants grown from seeds planted 14-21 days earlier were used in all the tests. Twospotted spider mites (Tetranychus urticae) were cultured continuously on sieva bean plants growing in an insectary under continuous lighting at 75° F.
On day 0, eight leaves which had been infested with mites 24 hours earlier were dipped in the treatment solution. On Day 5, mortality was assessed on four of the leaves and on Day 12 on the remaining four leaves.

2-spotted spider mites [2] = assay: Residual activity on bean leaves against 2-spotted spider mites (Table X); type: in vivo; settings: Tetranychus urticae
Method: as §1, §2
On Day 0, eight uninfested leaves were treated by immersion in the treatment solution. On Day 7, all the leaves were infested with a mixed population of mites. On Day 13, mortality was assessed on four of the leaves and on Day 19 on the remaining four leaves.

citrus rust mites = assay: Field experiment, citrus rust mite on pink grapefruit in Florida (Table XI); type: in vivo, Phyllocoptruta oleivora
Method: Citrus (pink grapefruit) trees (which were 5-7 years old) infested with citrus rust mites (Phyllocoptrura oleivora) were sprayed using a hydraulic handgun at 250 psi. Each tree was sprayed until runoff.
Each treatment consisted of three replicates. Thirty-three leaves from each tree were evaluated for percent leaf area not infested by mites. These evaluations were done before the application of treatments and 7 and 14 days after the application of treatments.

[3] = 120 h, read-out: mortality, adults
[4] = 288 h, read-out: mortality, adults
[5] = 288 h, read-out: mortality, larvae
[6] = 288 h, read-out: mortality, nymphs
[7] = 144 h, read-out: mortality, adults
[8] = 144 h, read-out: mortality, nymphs

SMILES: CC1=C[C@H]2C(=O)O[C@H]3C[C@@H](C/C=C(\C)C[C@@H](C)/C=C/C=C4\CO[C@H]([C@@H]1O)[C@@]42O)O[C@@]1(CC[C@H](C)[C@@H](C(C)C)O1)C3 [Milbemycin B-41D, 13-deoxy-22,23-dihydro avermectin B1b aglycone]
- mortality at 0.015 ppm (2-spotted spider mites [1]; [3]): 66%
- mortality at 0.04 ppm (2-spotted spider mites [1]; [3]): 79%
- mortality at 0.06 ppm (2-spotted spider mites [1]; [3]): 92%
- mortality at 0.25 ppm (2-spotted spider mites [1]; [3]): 100%
- mortality at 0.015 ppm (2-spotted spider mites [1]; [4]): 0%
- mortality at 0.04 ppm (2-spotted spider mites [1]; [4]): 0%
- mortality at 0.06 ppm (2-spotted spider mites [1]; [4]): 38%
- mortality at 0.25 ppm (2-spotted spider mites [1]; [4]): 43%
- mortality at 0.015 ppm (2-spotted spider mites [1]; [5]): 0%
- mortality at 0.04 ppm (2-spotted spider mites [1]; [5]): 0%
- mortality at 0.06 ppm (2-spotted spider mites [1]; [5]): 91%
- mortality at 0.25 ppm (2-spotted spider mites [1]; [5]): 100%
- mortality at 0.015 ppm (2-spotted spider mites [1]; [6]): 0%
- mortality at 0.04 ppm (2-spotted spider mites [1]; [6]): 0%
- mortality at 0.06 ppm (2-spotted spider mites [1]; [6]): 56%
- mortality at 0.25 ppm (2-spotted spider mites [1]; [6]): 67%
- potency in short term contact studies (2-spotted spider mites [1]; avermectin B1a/B1b versus milbemycin B-41D): comparable potency
- mortality at 0.25 ppm (2-spotted spider mites [2]; [7]): 0%
- mortality at 1 ppm (2-spotted spider mites [2]; [7]): 0%
- mortality at 4 ppm (2-spotted spider mites [2]; [7]): 6%
- mortality at 16 ppm (2-spotted spider mites [2]; [7]): 50%
- mortality at 0.25 ppm (2-spotted spider mites [2]; [8]): 0%
- mortality at 1 ppm (2-spotted spider mites [2]; [8]): 0%
- mortality at 4 ppm (2-spotted spider mites [2]; [8]): 0%
- mortality at 16 ppm (2-spotted spider mites [2]; [8]): 57%
- mortality at 0.25 ppm (2-spotted spider mites [2]; [4]): 0%
- mortality at 1 ppm (2-spotted spider mites [2]; [4]): 0%
- mortality at 4 ppm (2-spotted spider mites [2]; [4]): 15%
- mortality at 16 ppm (2-spotted spider mites [2]; [4]): 88%
- mortality at 0.25 ppm (2-spotted spider mites [2]; [5]): 0%
- mortality at 1 ppm (2-spotted spider mites [2]; [5]): 0%
- mortality at 4 ppm (2-spotted spider mites [2]; [5]): 53%
- mortality at 16 ppm (2-spotted spider mites [2]; [5]): 100%
- mortality at 0.25 ppm (2-spotted spider mites [2]; [6]): 0%
- mortality at 1 ppm (2-spotted spider mites [2]; [6]): 0%
- mortality at 4 ppm (2-spotted spider mites [2]; [6]): 2%
- mortality at 16 ppm (2-spotted spider mites [2]; [6]): 78%
- Percent control (citrus rust mites; 0.04 oz ai/100 gal, 7 days after treatment): 14%
- Percent control (citrus rust mites; 0.04 oz ai/100 gal, 14 days after treatment): 13%
- Percent control (citrus rust mites; 0.2 oz ai/100 gal, 7 days after treatment): 16%
- Percent control (citrus rust mites; 0.2 oz ai/100 gal, 14 days after treatment): 18%
